Assays:
[1] = target: T1, human androgen receptor (hAR) (Homo sapiens, UniProt P10275); assay: Androgenic activity (transactivation in CHO cells transfected with hAR, MMTV-luciferase, compared with 5α-dihydrotestosterone); assay type: cell-based; set-up: key: (−) very weak activity found; (+) activity found; (++) high activity; (+++) excellent activity; conditions: rated by scheme
T1 construct: expressed in transfected cells; host or cells: CHO (Chinese hamster ovary) cells
T1 sequence (P10275 1-920): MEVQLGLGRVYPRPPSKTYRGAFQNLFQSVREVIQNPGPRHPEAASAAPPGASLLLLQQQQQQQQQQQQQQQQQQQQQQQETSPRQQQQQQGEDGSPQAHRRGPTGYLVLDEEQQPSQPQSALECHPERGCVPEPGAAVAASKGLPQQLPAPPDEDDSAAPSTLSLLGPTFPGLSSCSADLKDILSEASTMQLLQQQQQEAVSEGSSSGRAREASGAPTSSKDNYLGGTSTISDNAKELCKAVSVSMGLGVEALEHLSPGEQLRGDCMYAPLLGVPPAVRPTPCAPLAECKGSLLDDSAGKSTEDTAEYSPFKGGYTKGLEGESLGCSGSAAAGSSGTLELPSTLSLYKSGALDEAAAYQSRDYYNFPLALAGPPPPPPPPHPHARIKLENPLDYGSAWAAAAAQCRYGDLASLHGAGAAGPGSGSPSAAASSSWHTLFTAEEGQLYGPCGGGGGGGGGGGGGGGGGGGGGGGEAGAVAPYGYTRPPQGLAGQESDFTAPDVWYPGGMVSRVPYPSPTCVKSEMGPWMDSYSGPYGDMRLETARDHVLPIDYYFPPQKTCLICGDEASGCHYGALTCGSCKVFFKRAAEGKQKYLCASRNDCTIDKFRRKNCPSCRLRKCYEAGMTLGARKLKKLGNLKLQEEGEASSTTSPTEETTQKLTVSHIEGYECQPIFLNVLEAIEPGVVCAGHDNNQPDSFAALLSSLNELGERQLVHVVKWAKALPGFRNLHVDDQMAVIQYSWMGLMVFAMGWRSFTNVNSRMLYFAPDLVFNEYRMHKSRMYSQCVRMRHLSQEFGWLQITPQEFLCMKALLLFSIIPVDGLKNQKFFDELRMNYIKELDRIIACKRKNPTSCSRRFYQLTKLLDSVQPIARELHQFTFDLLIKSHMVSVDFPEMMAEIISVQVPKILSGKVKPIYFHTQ
From the text: Androgenic activity can be measured in various ways. Thus, the potency of androgens can be determined in vitro using the cytoplasmic androgen receptor from human breast tumor cells (MCF-7 cell line); see Bergink, E. W. et al, Comparison of the receptor binding properties of nandrolone and testosterone under in vitro and in vivo conditions, J. Steroid Biochem. 22, 831-836 (1985). […] The transactivative androgen activity of the compounds of the invention can be measured, e.g. in Chinese hamster ovary cells (CHO) transfected with the human androgen receptor (hAR), in combination with a mouse mammary tumor virus (MMTV), and luciferase receptor gene (incubation time 16 h, temperature 37° C.) and compared with the activity of 5α-dihydrotestosterone [according to the procedure described by Schoonen, W. G. E. J. et al, Analyt. Biochem. 261, 222-224 (1998)]. For the in vivo potency determination of androgens the classical Hershberger test can be used. In this test the androgenic (increase in prostate weight) and anabolic activities [increase of the musculus levator ani (MLA)] of a compound are tested in immature castrated rats after daily administration for 7 days; see Hershberger, L. G. et al, Myotrophic activity of 19-Nortestosterone and other steroids determined by modified levator ani muscle method, Proceedings of the society for experimental biology and medicine 83, 175-180 (1953). Additionally, the effect of an androgenic compound on LH suppression can be tested in mature castrated rats according to Kumar, N. et al, The biological activity of 7alpha-methyl-19-nortestosteione is not amplified in male reproductive tract as is that of testosterone, Endocrinology 130, 3677-3683 (1992).
(§1) The compounds according to the invention were tested for androgenic activity and for progestational activity (the procedures for which have been described above) and rated according to the following scheme: […]

[2] = target: T2, human progesterone receptor B (hPRB) (Homo sapiens, UniProt P06401); assay: Progestational activity (transactivation in CHO cells transfected with hPRB, MMTV-luciferase, compared with (16α)-16-ethyl-21-hydroxy-19-norpregn-4-ene-3,20-dione); assay type: cell-based; set-up: key: (−) very weak activity found; (+) activity found; (++) high activity; (+++) excellent activity; conditions: rated by scheme
T2 construct: expressed in transfected cells; host or cells: CHO (Chinese hamster ovary) cells
T2 sequence (P06401 1-933): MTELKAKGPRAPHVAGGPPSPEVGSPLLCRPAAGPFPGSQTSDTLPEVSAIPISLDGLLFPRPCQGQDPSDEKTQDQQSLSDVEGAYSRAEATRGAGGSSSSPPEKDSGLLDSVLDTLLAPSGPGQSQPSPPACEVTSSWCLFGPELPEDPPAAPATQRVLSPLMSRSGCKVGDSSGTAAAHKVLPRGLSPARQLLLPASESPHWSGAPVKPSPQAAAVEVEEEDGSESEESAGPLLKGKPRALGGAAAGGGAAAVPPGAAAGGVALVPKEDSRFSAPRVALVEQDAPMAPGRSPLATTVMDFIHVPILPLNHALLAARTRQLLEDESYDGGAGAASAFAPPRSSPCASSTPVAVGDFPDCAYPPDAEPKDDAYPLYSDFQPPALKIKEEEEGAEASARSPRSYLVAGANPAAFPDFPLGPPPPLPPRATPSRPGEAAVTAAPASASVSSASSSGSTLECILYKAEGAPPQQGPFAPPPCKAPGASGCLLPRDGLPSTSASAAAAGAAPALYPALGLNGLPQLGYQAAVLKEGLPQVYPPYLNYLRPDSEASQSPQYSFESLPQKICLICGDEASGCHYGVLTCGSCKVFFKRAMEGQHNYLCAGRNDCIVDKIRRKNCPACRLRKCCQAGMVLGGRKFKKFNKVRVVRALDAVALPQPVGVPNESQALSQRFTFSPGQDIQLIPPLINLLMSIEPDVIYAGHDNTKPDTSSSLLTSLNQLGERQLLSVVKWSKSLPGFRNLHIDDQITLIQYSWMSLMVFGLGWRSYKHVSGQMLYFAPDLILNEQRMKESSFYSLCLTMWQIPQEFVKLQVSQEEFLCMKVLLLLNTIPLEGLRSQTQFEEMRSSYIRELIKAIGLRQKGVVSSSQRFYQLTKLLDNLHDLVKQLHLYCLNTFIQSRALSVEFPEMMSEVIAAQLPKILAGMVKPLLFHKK
Method: The transactivative progestagenic activity of the compounds of the invention can be measured, e.g. in Chinese hamster ovary cells (CHO) transfected with the human progesterone receptor B (hPRB), in combination with a mouse mammary tumor virus (MMTV), and luciferase receptor gene (incubation time 16 h, temperature 37° C.) and compared with the activity of (16α)-16-ethyl-21-hydroxy-19-norpregn-4-ene-3,20-dione [according to the procedure described by Schoonen, W. G. E. J. et al, Analyt. Biochem. 261, 222-224 (1998)].
as §1

Row | Structure (SMILES) | Androgenic activity [1] | Progestational activity [2] | melting point
1 | CC[C@@H]1CC2=CC(=O)CC[C@@H]2[C@H]2CC[C@@]3(C)C(=C[C@@H](C)[C@@H]3O)[C@H]12 [Example 7b, (7α,16α,17β)-17-Hydroxy-7-ethyl-16-metliylestra-4,14-dien-3-one] | ++ | + | 
2 | C[C@H]1C=C2[C@@H]3CCC4=CC(=O)CC[C@@H]4[C@H]3CC[C@]2(C)[C@H]1O [Example 6b, (16β,17β)-17-hydroxy-16-methylestra-4,14-dien-3-one] | ++ | + | 
3 | CCC1=C2[C@H]3[C@H](CC[C@]2(C)[C@@H](O)C1)[C@H]1CCC(=O)C=C1C[C@H]3C [Example 2, (7α,17β)-15-Ethyl-17-hydroxy-7-methylestra-4,14-dien-3-one] | + | ++ | 
4 | CC[C@]12CC[C@H]3[C@H](C1=C(C)C[C@@H]2O)[C@H](C)CC1=CC(=O)CC[C@@H]13 [Example 5, (7α,17β)-13-Ethyl-17-hydroxy-7,15-dimethylgona-4,14-dien-3-one] | ++ | + | 
5 | C=C[C@@H]1CC2=CC(=O)CC[C@@H]2[C@H]2CC[C@@]3(C)C(=C[C@@H](C)[C@@H]3O)[C@@H]21 [Example 7c, (7α,16α,17β)-17-Hydroxy-16-methyl-7-vinylestra-4,14-dien-3-one] | ++ | + | 
6 | C[C@@H]1CC2=CC(=O)CC[C@@H]2[C@H]2CC[C@@]3(C)C(=CC[C@@H]3O)[C@@H]21 [Reference compound (Segaloff comp.*), (7α,17β)-7-methyl-17-hydroxyestra-4,14-dien-3-one, reference compound] | +++ | − | 
7 | C[C@@H]1C=C2[C@@H]3CCC4=CC(=O)CC[C@@H]4[C@H]3CC[C@]2(C)[C@H]1O [Example 6a, (16α,17β)-17-Hydroxy-16-methylestra-4,14-dien-3-one] | + | + | 
8 | CC[C@@H]1CC2=C(CCC(=O)C2)[C@H]2CC[C@@]3(C)C(=C(C)C[C@@H]3O)[C@H]12 [Example 8a, (7α,17β)-7-Ethyl-17-hydroxy-15-methylestra-5(10),14-dien-3-one] | Prodrug | Prodrug | 
9 | CC[C@@H]1CC2=CC(=O)CC[C@@H]2[C@H]2CC[C@@]3(C)C(=C(C)C[C@@H]3O)[C@H]12 [Example 3, (7α,17β)-7-Ethyl-17-hydroxy-15-methylestra-4,14-dien-3-one] | ++ | + | 
10 | CC[C@@H]1CC2=C(CC[C@H](O)C2)[C@H]2CC[C@@]3(C)C(=C(C)C[C@@H]3O)[C@H]12 [Example 8c, (3β,7α,17β)-7-ethyl-15-methylestra-5 (10),14-diene-3,17-diol] | Prodrug | Prodrug | 
11 | C[C@@H]1C=C2[C@H]3[C@H](CC[C@]2(C)[C@H]1O)[C@H]1CCC(=O)C=C1C[C@H]3C [Example 7a, (7α,16α,17β)-17-Hydroxy-7,16-dimethylestra-4,14-dien-3-one] | ++ | + | 
12 | CC1=C2[C@H]3[C@H](CC[C@]2(C)[C@@H](O)C1)[C@H]1CCC(=O)C=C1C[C@H]3C [Example 1, (7α,17β)-17-Hydroxy-7,15-dimethylestra-4,14-dien-3-one] | ++ | ++ | 164 to 167 °C
13 | CCC1=C2[C@@H]3[C@H](CC)CC4=CC(=O)CC[C@@H]4[C@H]3CC[C@]2(C)[C@@H](O)C1 [Example 4, (7α,17β)-7,15-Diethyl-17-hydroxyestra-4,14-dien-3-one] | + | + | 
14 | CC[C@@H]1CC2=C(CC[C@@H](O)C2)[C@H]2CC[C@@]3(C)C(=C(C)C[C@@H]3O)[C@H]12 [Example 8b, (3α,7α,17β)-7-ethyl-15-methylestra-5(10),14-diene-3,17-diol] | Prodrug | Prodrug | 

From US20040059140A1, “14(15)-unsaturated 15- and/or 16-substituted androgens with mixed androgen-progrestational profile” (priority 2000, published 2004)
